# Assay results published in US5358951A, “Angiotensin II receptor blocking 2, 3, 6 substituted quinazolinones” (American Cyanamid Company, priority 1993, dated 1994).
# System: vasopressor response of angiotensin II
# Test: AII Challenge: antagonism of angiotensin II vasopressor response
# Type: in vivo
# Conditions: for inhibition in vivo at 3 mg/kg / inhibition in vivo at 10 mg/kg / inhibition in vivo at 1 mg/kg: Rattus norvegicus, iv
# Summary of the method: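 Percent antagonism is based on the systolic blood pressure rise (mmHg) to i.v. angiotensin II at 0.05 and 0.1 ug/kg. Each rat's own predose response was taken as 100%. Challenges were repeated from 30 to 300 min after i.v., i.p. or oral compound in cannulated conscious male SHR, 16-20 weeks old.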
structure (smiles),measurement,setting,value
"CCCCc1nc2ccc([C@@H]3C[C@H]4CCCCN4O3)cc2c(=O)n1Cc1ccc(-c2ccccc2-c2nnn[nH]2)cc1 (relative stereo) [Example 60, (Cis)-2-Butyl-6-(hexahydro-2H-isoxazolo[2,3-a]pyridin-2-yl)-3-[[2'-(1H-tetrazol-5-yl)-[1,1'-biphenyl]-4-yl]methyl]-4(3H)-quinazolinone]",Response Average Change,"3 mg/kg I.V., AII 0.05 mcg/kg IV, 240 min post dose",15 mmHg
same,Response Average Change,"3 mg/kg I.V., AII 0.05 mcg/kg IV, 300 min post dose",15 mmHg
same,Response Average Change,"3 mg/kg I.V., AII 0.1 mcg/kg IV, 240 min post dose",18.5 mmHg
same,Response Average Change,"3 mg/kg I.V., AII 0.1 mcg/kg IV, 300 min post dose",30 mmHg
same,Response Average Change,"10 mg/kg I.V., AII 0.05 mcg/kg IV, 30 min post dose",0 mmHg
same,Response Average Change,"10 mg/kg I.V., AII 0.05 mcg/kg IV, 60 min post dose",7.5 mmHg
same,Response Average Change,"10 mg/kg I.V., AII 0.05 mcg/kg IV, 90 min post dose",14 mmHg
same,Response Average Change,"10 mg/kg I.V., AII 0.05 mcg/kg IV, 120 min post dose",9.5 mmHg
same,Response Average Change,"10 mg/kg I.V., AII 0.05 mcg/kg IV, 180 min post dose",12.5 mmHg
same,Response Average Change,"10 mg/kg I.V., AII 0.05 mcg/kg IV, 240 min post dose",17 mmHg
same,Response Average Change,"10 mg/kg I.V., AII 0.05 mcg/kg IV, 300 min post dose",12.5 mmHg
same,Response Average Change,"10 mg/kg I.V., AII 0.1 mcg/kg IV, 30 min post dose",0 mmHg
same,Response Average Change,"10 mg/kg I.V., AII 0.1 mcg/kg IV, 60 min post dose",7.5 mmHg
same,Response Average Change,"10 mg/kg I.V., AII 0.1 mcg/kg IV, 90 min post dose",15 mmHg
same,Response Average Change,"10 mg/kg I.V., AII 0.1 mcg/kg IV, 120 min post dose",12.5 mmHg
same,Response Average Change,"10 mg/kg I.V., AII 0.1 mcg/kg IV, 180 min post dose",21.5 mmHg
same,Response Average Change,"10 mg/kg I.V., AII 0.1 mcg/kg IV, 240 min post dose",12.5 mmHg
same,Response Average Change,"10 mg/kg I.V., AII 0.1 mcg/kg IV, 300 min post dose",22.5 mmHg
same,inhibition in vivo at 3 mg/kg,"0.5 h, 3 mg/kg I.V., AII 0.05 mcg/kg IV, 30 min post dose",80%
same,inhibition in vivo at 3 mg/kg,"0.5 h, 3 mg/kg I.V., AII 0.1 mcg/kg IV, 30 min post dose",69%
same,inhibition in vivo at 10 mg/kg,"0.5 h, 10 mg/kg I.V., AII 0.05 mcg/kg IV, 30 min post dose",100%
same,inhibition in vivo at 10 mg/kg,"0.5 h, 10 mg/kg I.V., AII 0.1 mcg/kg IV, 30 min post dose",100%
same,inhibition in vivo at 3 mg/kg,"1 h, 3 mg/kg I.V., AII 0.05 mcg/kg IV, 60 min post dose",73%
same,inhibition in vivo at 3 mg/kg,"1 h, 3 mg/kg I.V., AII 0.1 mcg/kg IV, 60 min post dose",79%
same,inhibition in vivo at 10 mg/kg,"1 h, 10 mg/kg I.V., AII 0.05 mcg/kg IV, 60 min post dose",82%
same,inhibition in vivo at 10 mg/kg,"1 h, 10 mg/kg I.V., AII 0.1 mcg/kg IV, 60 min post dose",85%
same,inhibition in vivo at 3 mg/kg,"2 h, 3 mg/kg I.V., AII 0.05 mcg/kg IV, 120 min post dose",73%
same,inhibition in vivo at 3 mg/kg,"2 h, 3 mg/kg I.V., AII 0.1 mcg/kg IV, 120 min post dose",56%
same,inhibition in vivo at 10 mg/kg,"2 h, 10 mg/kg I.V., AII 0.05 mcg/kg IV, 120 min post dose",77%
same,inhibition in vivo at 10 mg/kg,"2 h, 10 mg/kg I.V., AII 0.1 mcg/kg IV, 120 min post dose",74%
same,inhibition in vivo at 3 mg/kg,"3 h, 3 mg/kg I.V., AII 0.1 mcg/kg IV, 180 min post dose",44%
same,inhibition in vivo at 10 mg/kg,"3 h, 10 mg/kg I.V., AII 0.05 mcg/kg IV, 180 min post dose",70%
same,inhibition in vivo at 10 mg/kg,"3 h, 10 mg/kg I.V., AII 0.1 mcg/kg IV, 180 min post dose",56%
same,inhibition in vivo at 3 mg/kg,"4 h, 3 mg/kg I.V., AII 0.05 mcg/kg IV, 240 min post dose",59%
same,inhibition in vivo at 3 mg/kg,"4 h, 3 mg/kg I.V., AII 0.1 mcg/kg IV, 240 min post dose",49%
same,inhibition in vivo at 10 mg/kg,"4 h, 10 mg/kg I.V., AII 0.05 mcg/kg IV, 240 min post dose",59%
same,inhibition in vivo at 10 mg/kg,"4 h, 10 mg/kg I.V., AII 0.1 mcg/kg IV, 240 min post dose",74%
same,inhibition in vivo at 3 mg/kg,"5 h, 3 mg/kg I.V., AII 0.05 mcg/kg IV, 300 min post dose",59%
same,inhibition in vivo at 3 mg/kg,"5 h, 3 mg/kg I.V., AII 0.1 mcg/kg IV, 300 min post dose",18%
same,inhibition in vivo at 10 mg/kg,"5 h, 10 mg/kg I.V., AII 0.05 mcg/kg IV, 300 min post dose",70%
same,inhibition in vivo at 10 mg/kg,"5 h, 10 mg/kg I.V., AII 0.1 mcg/kg IV, 300 min post dose",54%
same,inhibition in vivo at 3 mg/kg,"[…], 3 mg/kg I.V., AII 0.05 mcg/kg IV, 90 min post dose",73%
same,inhibition in vivo at 10 mg/kg,"[…], 10 mg/kg I.V., AII 0.05 mcg/kg IV, 90 min post dose",66%
same,inhibition in vivo at 10 mg/kg,"[…], 10 mg/kg I.V., AII 0.1 mcg/kg IV, 90 min post dose",69%
"CCCCc1nc2ccc([C@@]3(c4ccccc4)C[C@@H]4CCCN4O3)cc2c(=O)n1Cc1ccc(-c2ccccc2-c2nnn[nH]2)cc1 (relative stereo) [Example 70, Cis-2-butyl-6-(hexahydro-2-phenylpyrrolo-[1,2-b]isoxazol-2-yl)-3-[[2'-(1H-tetrazol-5-yl)[1,1'-biphenyl]-4-yl]methyl]-4(3H)-quinazolinone]",Response Average Change,"1 mg/kg i.v., AII 0.05 mcg/kg IV, 30 min post dose",23.5 mmHg
same,Response Average Change,"1 mg/kg i.v., AII 0.05 mcg/kg IV, 60 min post dose",12.5 mmHg
same,Response Average Change,"1 mg/kg i.v., AII 0.05 mcg/kg IV, 90 min post dose",12.5 mmHg
same,Response Average Change,"1 mg/kg i.v., AII 0.05 mcg/kg IV, 120 min post dose",20 mmHg
same,Response Average Change,"1 mg/kg i.v., AII 0.05 mcg/kg IV, 180 min post dose",20 mmHg
same,Response Average Change,"1 mg/kg i.v., AII 0.05 mcg/kg IV, 240 min post dose",27.5 mmHg
same,Response Average Change,"1 mg/kg i.v., AII 0.05 mcg/kg IV, 300 min post dose",30 mmHg
same,Response Average Change,"1 mg/kg i.v., AII 0.1 mcg/kg IV, 30 min post dose",30 mmHg
same,Response Average Change,"1 mg/kg i.v., AII 0.1 mcg/kg IV, 60 min post dose",17.5 mmHg
same,Response Average Change,"1 mg/kg i.v., AII 0.1 mcg/kg IV, 90 min post dose",30.5 mmHg
same,Response Average Change,"1 mg/kg i.v., AII 0.1 mcg/kg IV, 120 min post dose",26 mmHg
same,Response Average Change,"1 mg/kg i.v., AII 0.1 mcg/kg IV, 180 min post dose",30 mmHg
same,Response Average Change,"1 mg/kg i.v., AII 0.1 mcg/kg IV, 240 min post dose",30 mmHg
same,Response Average Change,"1 mg/kg i.v., AII 0.1 mcg/kg IV, 300 min post dose",37.5 mmHg
same,inhibition in vivo at 1 mg/kg,"0.5 h, 1 mg/kg i.v., AII 0.05 mcg/kg IV, 30 min post dose",48%
same,inhibition in vivo at 1 mg/kg,"0.5 h, 1 mg/kg i.v., AII 0.1 mcg/kg IV, 30 min post dose",37%
same,inhibition in vivo at 1 mg/kg,"1 h, 1 mg/kg i.v., AII 0.05 mcg/kg IV, 60 min post dose",72%
same,inhibition in vivo at 1 mg/kg,"1 h, 1 mg/kg i.v., AII 0.1 mcg/kg IV, 60 min post dose",63%
same,inhibition in vivo at 1 mg/kg,"2 h, 1 mg/kg i.v., AII 0.05 mcg/kg IV, 120 min post dose",56%
same,inhibition in vivo at 1 mg/kg,"2 h, 1 mg/kg i.v., AII 0.1 mcg/kg IV, 120 min post dose",45%
same,inhibition in vivo at 1 mg/kg,"3 h, 1 mg/kg i.v., AII 0.05 mcg/kg IV, 180 min post dose",56%
same,inhibition in vivo at 1 mg/kg,"3 h, 1 mg/kg i.v., AII 0.1 mcg/kg IV, 180 min post dose",37%
same,inhibition in vivo at 1 mg/kg,"4 h, 1 mg/kg i.v., AII 0.05 mcg/kg IV, 240 min post dose",39%
same,inhibition in vivo at 1 mg/kg,"4 h, 1 mg/kg i.v., AII 0.1 mcg/kg IV, 240 min post dose",37%
same,inhibition in vivo at 1 mg/kg,"5 h, 1 mg/kg i.v., AII 0.05 mcg/kg IV, 300 min post dose",33%
same,inhibition in vivo at 1 mg/kg,"5 h, 1 mg/kg i.v., AII 0.1 mcg/kg IV, 300 min post dose",21%
same,inhibition in vivo at 1 mg/kg,"[…], 1 mg/kg i.v., AII 0.05 mcg/kg IV, 90 min post dose",72%
same,inhibition in vivo at 1 mg/kg,"[…], 1 mg/kg i.v., AII 0.1 mcg/kg IV, 90 min post dose",36%
